One assay addresses T1, MMADHC (CblD) (Homo sapiens, UniProt Q9H3L0, C261S/C262S).
T1 sequence (Q9H3L0 1-296 C261S/C262S): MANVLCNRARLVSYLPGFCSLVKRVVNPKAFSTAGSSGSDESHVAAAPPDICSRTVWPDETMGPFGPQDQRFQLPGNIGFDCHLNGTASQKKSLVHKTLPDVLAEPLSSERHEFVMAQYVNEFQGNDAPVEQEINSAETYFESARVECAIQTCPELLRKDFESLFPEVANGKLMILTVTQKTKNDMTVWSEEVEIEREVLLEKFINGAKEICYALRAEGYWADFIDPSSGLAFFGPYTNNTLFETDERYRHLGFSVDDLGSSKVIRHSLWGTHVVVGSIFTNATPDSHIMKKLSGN
Briefly: UV-visible titration. The format is binding.

The target in assay [1] is T2, C262S ^ΔNMMADHC–S–Cob(III) (human, UniProt Q9H3L0 116-296, C262S, thiolato-cob(III)alamin (cobalamin coordinated through a cysteine sulfur, -S-Cob(III))).
T2 sequence (looked up): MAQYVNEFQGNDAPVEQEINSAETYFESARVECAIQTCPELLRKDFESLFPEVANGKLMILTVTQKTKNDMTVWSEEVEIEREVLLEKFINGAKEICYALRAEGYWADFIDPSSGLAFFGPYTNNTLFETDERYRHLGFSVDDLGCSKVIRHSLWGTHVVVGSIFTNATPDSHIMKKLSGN
Kind of assay: UV-visible absorbance titration.

The term Kd denotes the free concentration of one partner at which half of the binding sites on the other are occupied at equilibrium, for simple one-to-one binding. A lower Kd goes with a tighter complex. The term stoichiometry N denotes a count of units in the complex or per binding partner.

Turning to H2OCbl, at MMADHC (CblD), the equilibrium dissociation constant (Kd) worked out at 8.4 ± 1.9 µM.

B1: ^ΔNMTR, C-terminal half of human methionine synthase (cap, B12 and AdoMet domains, residues 661–1265) (domain or fragment, UniProt Q99707 661-1265, looked up)
chain: IQTDEWRNGPVEERLEYALVKGIEKHIIEDTEEARLNQKKYPRPLNIIEGPLMNGMKIVGDLFGAGKMFLPQVIKSARVMKKAVGHLIPFMEKEREETRVLNGTVEEEDPYQGTIVLATVKGDVHDIGKNIVGVVLGCNNFRVIDLGVMTPCDKILKAALDHKADIIGLSGLITPSLDEMIFVAKEMERLAIRIPLLIGGATTSKTHTAVKIAPRYSAPVIHVLDASKSVVVCSQLLDENLKDEYFEEIMEEYEDIRQDHYESLKERRYLPLSQARKSGFQMDWLSEPHPVKPTFIGTQVFEDYDLQKLVDYIDWKPFFDVWQLRGKYPNRGFPKIFNDKTVGGEARKVYDDAHNMLNTLISQKKLRARGVVGFWPAQSIQDDIHLYAEAAVPQAAEPIATFYGLRQQAEKDSASTEPYYCLSDFIAPLHSGIRDYLGLFAVACFGVEELSKAYEDDGDDYSSIMVKALGDRLAEAFAEELHERVRRELWAYCGSEQLDVADLRRLRYKGIRPAPGYPSQPDHTEKLTMWRLADIEQSTGIRLTESLAMAPASAVSGLYFSNLKSKYFAVGKISKDQVEDYALRKNISVAEVEKWLGPILGYDTD
With B1, the “stoichiometry N” value in assay [1] is 1.

For the origin of these results see PMC11063128 (Journal of the American Chemical Society, 2023).
